Values quoted from earlier work, collected in paper PMC11435065, “Inhibition of P-Glycoprotein Asymmetrically Alters the In Vivo Exposure Profile of SGC003F: A Novel Guanylate Cyclase Stimulator” (Pharmaceuticals, 2024).

Parameters: method as in PMID 24398461
Details: rats, one hour after administration, with 1.0 mg/kg tariquidar; cited from earlier work

Structure (SMILES): CN(C)C(=O)C(CCN1CCC(O)(c2ccc(Cl)cc2)CC1)(c1ccccc1)c1ccccc1 [loperamide]
- Increase of loperamide levels in the brain: 2.3 fold
